Data from patent US8796256B2 (Janssen Pharmaceutica NV, priority 2010, dated 2014).

Molecular target: T1, ERR1 (also known as ERR-α or ERR-1) (Homo sapiens, UniProt P11474)
T1 sequence (P11474 193-421 limits assumed): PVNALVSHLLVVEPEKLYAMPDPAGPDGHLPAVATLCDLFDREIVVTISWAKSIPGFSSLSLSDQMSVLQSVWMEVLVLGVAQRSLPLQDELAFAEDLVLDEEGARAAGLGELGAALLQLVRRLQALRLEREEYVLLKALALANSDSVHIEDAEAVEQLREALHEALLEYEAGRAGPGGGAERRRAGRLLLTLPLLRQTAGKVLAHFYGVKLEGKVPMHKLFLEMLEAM
Assay: TR-FRET assay (disruption of co-activator peptide binding to ERR1 LBD)
Assay type: biochemical
Conditions: 6 nM 6His-ERR1LBD, 6 nM GST-SRC-2 peptide; average of 3 independent experiments
Method in brief: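 Homogeneous TR-FRET measuring displacement of GST-hSRC2 co-activator peptide (6 nM) from His-tagged ERR1 LBD (6 nM), detected with α-GST Eu cryptate (30 nM) and α-His-XL665 (7.5 nM). Buffer 25 mM Tris pH 8, 2.5 mM Hepes, 20 mM KCl, 1 mM DTT, 0.05 mg/mL delipidated BSA; equilibration 4-18 h at 25° C. Hyperbolic dose-response fit, mean of 3 experiments.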

## Cc1nn(Cc2ccc(Cl)cc2C(F)(F)F)c2ccc(/C=C3\SC(=O)N(CC(=O)NS(C)(=O)=O)C3=O)cc12 [Compound 44, 2-[(5Z)-5-({1-[4-Chloro-2-(trifluoromethyl)benzyl]-3-methyl-1H-indazol-5-yl}methylidene)-2,4-dioxo-1,3-thiazolidin-3-yl]-N-(methylsulfonyl)acetamide]
  EC50: 72 nM

## O=C1S/C(=C\c2ccc3c(cnn3Cc3ccc(Cl)cc3C(F)(F)F)c2)C(=O)N1C[C@@H]1CNCCO1 [Compound 183, (5Z)-5-({1-[4-Chloro-2-(trifluoromethyl)benzyl]-1H-indazol-5-yl}methylidine)-3-[(2S)-morpholin-2-ylmethyl]-1,3-thiazolidine-2,4-dione]
  EC50: 170 nM

## O=C1S/C(=C\c2ccc3c(c2)nnn3Cc2ccc(Cl)cc2C(F)(F)F)C(=O)N1CCN1CCCC1 [Compound 258, (5Z)-5-({1-[4-Chloro-2-(trifluoromethyl)benzyl]-1H-benzotriazol-5-yl}methylidene)-3-(2-pyrrolidin-1-ylmethyl)-1,3-thiazolidine-2,4-dione]
  EC50: 24 nM

## CCOC(=O)C(Cc1ccccn1)N1C(=O)S/C(=C\c2ccc3c(cnn3Cc3ccc(Cl)cc3C(F)(F)F)c2)C1=O (centres unmarked) [Compound 211, Ethyl 2-[(5Z)-5-({1-[4-chloro-2-(trifluoromethyl)benzyl]-1H-indazol-5-yl}methylidene)-2,4-dioxo-1,3-thiazolidin-3-yl]-3-pyridin-2-ylpropanoate]
  EC50: 91 nM

## O=C1OCCC1N1C(=O)S/C(=C\c2ccc3c(cnn3Cc3ccc(C(F)(F)F)cc3C(F)(F)F)c2)C1=O (centres unmarked) [Compound 65, (5Z)-5-({1-[2,4-Bis(trifluoromethyl)benzyl]-1H-indazol-5-yl}methylidene)-3-(2-oxotetrahydrofuran-3-yl)-1,3-thiazolidine-2,4-dione]
  EC50: 50 nM

## CS(=O)(=O)NN1C(=O)S/C(=C\c2ccc3c(cnn3Cc3ccc(Cl)cc3C(F)(F)F)c2F)C1=O [Compound 370, N-[(5Z)-5-({1-[4-Chloro-2-(trifluoromethyl)benzyl]-4-fluoro-1H-indazol-5-yl}methylidene)-2,4-dioxo-1,3-thiazolidin-3-yl]methanesulfonamide]
  EC50: 48 nM

## O=C1S/C(=C\c2ccc3c(cnn3Cc3ccc(Cl)cc3C(F)(F)F)c2)C(=O)N1Cc1c[nH]cn1 [Compound 405, (5Z)-5-({1-[4-Chloro-2-(trifluoromethyl)benzyl]-1H-indazol-5-yl}methylidene)-3-(1H-imidazol-4-ylmethyl)-1,3-thiazolidine-2,4-dione]
  EC50: 48 nM

## COC(=O)C1(N2C(=O)S/C(=C\c3ccc4c(cnn4Cc4ccc(Cl)cc4C(F)(F)F)c3)C2=O)CCC1 [Compound 234, Methyl 1-[(5Z)-5-({1-[4-chloro-2-(trifluoromethyl)benzyl]-1H-indazol-5-yl}methylidene)-2,4-dioxo-1,3-thiazolidin-3-yl]cyclobutanecarboxylate]
  EC50: 99 nM

## N[C@H]1CC[C@H](CN2C(=O)S/C(=C\c3ccc4c(cnn4Cc4ccc(Cl)cc4C(F)(F)F)c3)C2=O)CC1 [Compound 284, (5Z)-3-[(trans-4-Aminocyclohexyl)methyl]-5-({1-[4-chloro-2-(trifluoromethyl)benzyl]-1H-indazol-5-yl}methylidene)-1,3-thiazolidine-2,4-dione]
  EC50: 129 nM

## COCCN1CCC[C@H]1CN1C(=O)S/C(=C\c2ccc3c(cnn3Cc3ccc(Cl)cc3C(F)(F)F)c2)C1=O [Compound 152, (5Z)-5-({1-[4-Chloro-2-(trifluoromethyl)benzyl]-1H-indazol-5-yl}methylidene)-3-{[(2S)-1-(2-methoxyethyl)pyrrolidin-2-yl]methyl}-1,3-thiazolidine-2,4-dione]
  EC50: 27 nM

## NS(=O)(=O)CN1C(=O)S/C(=C\c2ccc3c(cnn3Cc3ccc(C(F)(F)F)cc3C(F)(F)F)c2)C1=O [Compound 68]
  EC50: 124 nM

## O=C1S/C(=C\c2ccc3c(cnn3Cc3ccc(Cl)cc3C(F)(F)F)c2)C(=O)N1C[C@@H]1CCCN1CCO [Compound 153, (5Z)-5-({1-[4-Chloro-2-(trifluoromethyl)benzyl]-1H-indazol-5-yl}methylidene)-3-{[(2S)-1-(2-hydroxyethyl)pyrrolidin-2-yl]methyl}-1,3-thiazolidine-2,4-dione]
  EC50: 17 nM

## N#Cc1ccc(Cn2ncc3cc(/C=C4\SC(=O)N(CC(=O)O)C4=O)ccc32)c(C(F)(F)F)c1 [Compound 346, [(5Z)-5-({1-[4-Cyano-2-(trifluoromethyl)benzyl]-1H-indazol-5-yl}methylidene)-2,4-dioxo-1,3-thiazolidin-3-yl]acetic acid]
  EC50: 579 nM

## CN(CCN1C(=O)S/C(=C\c2ccc3c(cnn3Cc3ccc(Cl)cc3C(F)(F)F)c2)C1=O)S(=O)(=O)c1ccc(C(F)(F)F)cc1 [Compound 395, N-{2-[(5Z)-5-({1-[4-Chloro-2-(trifluoromethyl)benzyl]-1H-indazol-5-yl}methylidene)-2,4-dioxo-1,3-thiazolidin-3-yl]ethyl}-N-methyl-4-(trifluoromethyl) benzenesulfonamide]
  EC50: 460 nM

## NS(=O)(=O)NC(=O)CN1C(=O)S/C(=C\c2ccc3c(cnn3Cc3ccc(C(F)(F)F)cc3C(F)(F)F)c2)C1=O [Compound 87, 2-[(5Z)-5-({1-[2,4-Bis(trifluoromethyl)benzyl]-1H-indazol-5-yl}methylidene)-2,4-dioxo-1,3-thiazolidin-3-yl]-N-sulfamoylacetamide]
  EC50: 650 nM

## CCN1C[C@@H](N2C(=O)S/C(=C\c3ccc4c(cnn4Cc4ccc(Cl)cc4C(F)(F)F)c3)C2=O)[C@@H](F)C1 (relative stereo) [Compound 324, (5Z)-5-({1-[4-Chloro-2-(trifluoromethyl)benzyl]-1H-indazol-5-yl}methylidene)-3-[cis-1-ethyl-4-fluoropyrrolidin-3-yl]-1,3-thiazolidine-2,4-dione]
  EC50: 33 nM

## CS(=O)(=O)NN1C(=O)S/C(=C\c2ccc3c(cnn3Cc3ccc(F)cc3C(F)(F)F)c2)C1=O [Compound 363, N-[(5Z)-5-({1-[4-Fluoro-2-(trifluoromethyl)benzyl]-1H-indazol-5-yl}methylidene)-2,4-dioxo-1,3-thiazolidin-3-yl]methanesulfonamide]
  EC50: 59 nM

## O=C1S/C(=C\c2ccc3c(cnn3Cc3ccc(Cl)cc3C(F)(F)F)c2)C(=O)N1C1CCNCC1(F)F (centres unmarked) [Compound 345, (5Z)-5-({1-[4-Chloro-2-(trifluoromethyl)benzyl]-1H-indazol-5-yl}methylidene)-3-(3,3-difluoropiperidin-4-yl)-1,3-thiazolidine-2,4-dione]
  EC50: 18 nM

## O=C1S/C(=C\c2ccc3c(cnn3Cc3ccc(Cl)cc3C(F)(F)F)c2)C(=O)N1[C@@H]1CNC[C@H]1O (relative stereo) [Compound 316, (5Z)-5-({1-[4-Chloro-2-(trifluoromethyl)benzyl]-1H-indazol-5-yl}methylidene)-3-[trans-4-hydroxypyrrolidin-3-yl]-1,3-thiazolidine-2,4-dione]
  EC50: 36 nM

## CC(C)N1CC[C@@H](N2C(=O)S/C(=C\c3ccc4c(cnn4Cc4ccc(Cl)cc4C(F)(F)F)c3)C2=O)[C@H](F)C1 (relative stereo) [Compound 328, (5Z)-5-({1-[4-Chloro-2-(trifluoromethyl)benzyl]-1H-indazol-5-yl}methylidene)-3-[trans-3-fluoro-1-(1-methylethyl)piperidin-4-yl]-1,3-thiazolidine-2,4-dione]
  EC50: 152 nM
